Patent US20240316079A1, “USE OF AKR1C3-ACTIVATED COMPOUND” (OBI PHARMA, INC., priority 2021, published 2024)
Where two headings read alike, the source gives them in different places.

Tests used:
H460 cells [1] = assay: Cytotoxicity in H460 cells in the absence or presence of AKR1C3 inhibitor 3021; conditions: Homo sapiens, NCI-H460, 2 h, read-out: IC50 (cytotoxicity)
Method: Exponentially growing cells were seeded 24 hours before the addition of test compounds. After addition of test compounds, the plates were incubated for the indicated hours at 37° C. in a standard tissue culture incubator. At the end of the experiment, the viable cells were detected using either a CellTiter Glo (CTG) assay kit or AlamarBlue^(28,29). […] For 3021 experiments, cells were pretreated with 3 μM of 3021 for 2 h prior to compound treatment under air. IC50 was calculated as described above.

H460 cells [2] = assay: Comet assay for DNA cross-linking; type: cell-based, human
Method: After seeding cells for 24 hours, the test articles were added at the indicated concentrations and incubated for 2 hours. Cells were washed twice to remove compound completely. 20 μmol/L of bleomycin was added and incubated for 1 hour under air to induce DNA strand breaks following 2 h cell resting. After washing twice with PBS, comet assay was conducted using a single-cell electrophoresis system from Trevigen (Gaithersburg, MD). The data were analyzed using Comet Assay IV software from Perceptive Instruments (29).
To evaluate whether 3424 cross-linked DNA, a direct biochemical assay for DNA cross-linking, the single-cell electrophoresis-based comet assay was employed using H460 cells. In this assay, the racemic mixture, 2870, was used. […] Bleomycin was used to induce DNA strand breaks which was evident by increased tail moment to 35. 2870-induced DNA cross-linking was tested using three concentrations under identical conditions that were used for bleomycin. Compound 2870-induced concentration-dependent DNA-crosslinking was evident by a decreased tail moment from 36 to 1.6.

recombinant human AKR1C3 = target: T1, recombinant human AKR1C3 (Homo sapiens, UniProt P42330); assay: Kinetic analysis of AKR1C3 towards various substrates (NADPH absorbance 340 nm); type: biochemical; conditions: substrate of AKR1C3, 25° C., triplicate
T1 construct: purchased Abcam (Cambridge, MA)
T1 sequence (P42330 1-323): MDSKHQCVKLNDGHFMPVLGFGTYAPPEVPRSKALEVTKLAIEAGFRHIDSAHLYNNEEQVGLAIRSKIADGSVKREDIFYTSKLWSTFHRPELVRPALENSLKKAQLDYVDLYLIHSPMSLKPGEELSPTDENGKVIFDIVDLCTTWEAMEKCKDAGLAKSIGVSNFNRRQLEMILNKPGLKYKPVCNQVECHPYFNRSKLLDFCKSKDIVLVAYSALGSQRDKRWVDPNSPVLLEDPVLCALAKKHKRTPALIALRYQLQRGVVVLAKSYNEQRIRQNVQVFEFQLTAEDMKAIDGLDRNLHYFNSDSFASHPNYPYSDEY
Method: The reaction was incubated at 25° C. and terminated at various time points by adding acetonitrile and methanol (at a ratio of 9 to 1) and subjected for LC-MS/MS analysis. For enzyme kinetic analysis, the activity was determined with a SpectraMax M2^e spectrophotometer (Molecular Devices, LLC, San Jose, CA) by measuring the decrease in absorbance of the NADPH at 340 nm (E=6270 M^−1 cm^−1). After the initiation of the reaction by addition of substrates, the reactions were monitored at 30 s intervals at 25° C. The non-substrate reaction rate was also monitored as background and its slope was used to determine the initial velocity of the reaction. The kinetic data reported were the average of triplicate measurements.

SNU-16 xenograft = conditions: 5-FU 30 mg/kg IP twice a week
Method: (§1) Death and observed clinical signs were recorded on the basis of the numbers of animals within each subset.

[3] = system: HepG2 orthotopic xenograft; type: in vivo, mice; conditions: sorafenib 30 mg/kg orally, QD×5×7 cycles; no statistical significance
Method: (§2) In vivo anti-tumor activity of 3424 was evaluated using GFP-expressing cancer cell lines in an orthotopic liver cancer model (HepG2) and a subcutaneous lung cancer model (H460) CDX models at AntiCancer, Inc (Beijing, China). Female athymic nude mice (6 weeks; BALB/c-nu, Beijing HFK Bioscience Co., Ltd., Beijing, China) were used in the studies. Each mouse was implanted with a HepG2-GFP tumor chunk (˜1 mm^3 in diameter) in the right lobe of the liver for tumor development or inoculated subcutaneously with H460-GFP tumor chunk (˜1 mm^3 in diameter). About 3-10 days later, whole mouse body scan was performed using FluorVivo Model-100 fluorescence imager (INDEC Biosystems, Inc., Los Altos, CA). Mice with similar fluorescent areas were selected and randomly grouped. Both cell lines expressed high level of AKR1C3. Prodrug 3424 was dosed intravenously (IV) at 1.25, 2.5 mg/kg or 5 mg/kg Q7D×2 for the HepG2 orthotopic model or at 0.625, 1.25 or 2.5 mg/kg for the H460 xenograft model with a regimen of Q7D×2, 1 week off, then Q7D×2 again. Sorafenib was used as the positive control in the HepG2 model and was dosed orally at 30 mg/kg with a regimen of QD×5×7 cycles. Taxol was used as the positive control in the H460 model and was administered at 15 mg/kg IV with a regimen of BIW×4. During the experiments, mice were observed daily and body weight was measured twice a week. Tumor burden was monitored twice a week either by caliper measurement (H460) or FluorVivo fluorescence imager (H460-GFP and HepG2-GFP).

A498 xenograft = system: A498 xenograft
Method: as §1

[4] = system: H460 subcutaneous xenograft; type: in vivo, mice; conditions: paclitaxel 15 mg/kg IV BIW×4
Method: as §2

CC(OP(=O)(N1CC1)N1CC1)c1ccc([N+](=O)[O-])c(Oc2cccc(C(=O)N(C)C)c2)c1 (racemic) [Compound 2870, 1-(3-(3-N,N-dimethylaminocarbonyl)phenoxyl-4-mtrophenyl)-1-ethyl-N,N′-bis(ethylene)phosphoramidate] was tested, and the IC50 (H460 cells [1]) was 4 nM and the tail moment (H460 cells [2]; 2870 at three concentrations, 2 hours, then bleomycin, decreased from 36, concentration-dependent DNA cross-linking) was 1.6.
Compound C[C@]12CCC(=O)C=C1CC[C@@H]1[C@@H]2CC[C@]2(C)C(=O)CC[C@@H]12 [4-Androstenedione, 4-androstenedione, reference compound] has a Kcat (recombinant human AKR1C3) of 0.0012 ± 0.00017 s⁻¹ and a Km (recombinant human AKR1C3) of 1.98 ± 0.43 µM.
C[C@]12CCC(=O)C[C@@H]1CC[C@@H]1[C@@H]2CC[C@]2(C)[C@@H](O)CC[C@@H]12 [5^α-DHT, dihydrotestosterone, reference compound] was tested, and the Kcat (recombinant human AKR1C3) was 0.002 ± 0 s⁻¹ and the Km (recombinant human AKR1C3) was 10.2 ± 0.62 µM.
O=c1[nH]cc(F)c(=O)[nH]1 [Compound 5-FU, 5-fluorouracil, reference compound] was tested, and the anti-tumor activity (SNU-16 xenograft) was “no anti-tumor activity”.
In the case of C[C@@H](OP(=O)(N1CC1)N1CC1)c1ccc([N+](=O)[O-])c(Oc2cccc(C(=O)N(C)C)c2)c1 [Compound 3423, (R)-1-(3-(3-N,N-dimethylaminocarbonyl)phenoxyl-4-mtrophenyl)-1-ethyl-N,N′-bis(ethylene)phosphoramidate], the Kcat (recombinant human AKR1C3) is reported as 0.012 ± 0.00067 s⁻¹, the Km (recombinant human AKR1C3; read-out: Km) is reported as 12.9 ± 1.71 µM and the IC50 (H460 cells [1]) is reported as 5 nM.
With CNC(=O)c1cc(Oc2ccc(NC(=O)Nc3ccc(Cl)c(C(F)(F)F)c3)cc2)ccn1 [Sorafenib, reference compound] the “tumor growth reduction (TGI)” value [3] was 52.1%.
Compound Nc1ccn([C@@H]2O[C@H](CO)[C@@H](O)C2(F)F)c(=O)n1 [gemcitabine, reference compound] has a TGI (A498 xenograft; gemcitabine 80 mg/kg weekly IP for 4 doses) of 19%.
With CC(=O)O[C@H]1C(=O)[C@@]2(C)[C@H]([C@H](OC(=O)c3ccccc3)[C@]3(O)C[C@H](OC(=O)[C@H](O)[C@@H](NC(=O)c4ccccc4)c4ccccc4)C(C)=C1C3(C)C)[C@]1(OC(C)=O)CO[C@@H]1C[C@@H]2O [paclitaxel, reference compound] the TGI [4] was 64%.
Compound CCN(CC)CCNC(=O)c1c(C)[nH]c(/C=C2\C(=O)Nc3ccc(F)cc32)c1C [sunitinib, reference compound] has a TGI (A498 xenograft; sunitinib 25 mg/kg daily oral gavage) of 52%.
bleomycin [reference compound] showed a tail moment (H460 cells [2]; bleomycin used to induce DNA strand breaks (20 μmol/L, 1 hour)) of 35.
